Assay results from patent US10975068B2, “6-aminopyridin-3-yl thiazoles as modulators of RORγT” (Janssen Pharmaceutica NV, priority 2016, dated 2021).

Legend:
[1] = biological target: human RORγt ligand binding domain (RORγt LBD) (Homo sapiens (Human), UniProt P51449); assay: RORγt ThermoFluor® assay (thermal shift binding); details: read-out: ThermoFluor® Assay, Kd
Procedure, shortened: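 Binding was inferred from thermal stabilisation (ΔTm) of the E. coli-expressed RORγt LBD (0.065 mg/mL), monitored by 1,8-ANS (60 μM) emission at 500 nm during a 1 °C/min ramp. Buffer was Hepes 100 mM pH 7.0 with NaCl, GSH and Tween-20.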

full-length human RORγt = full-length human RORγt (Homo sapiens (Human), UniProt P51449); assay: RORγt (full-length human) reporter assay, Conditions B or C; type: cell-based; details: Conditions B or C; for RORγt (FL) Reporter Assay B or C, % inhibition (value marked *): marked *: footnote not given; for IC50: read-out: RORγt (FL) Reporter Assay B or C, IC50; for RORγt (FL) Reporter Assay B or C, % inhibition (value marked ***): marked ***: footnote not given
Procedure, shortened: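 Readout is dual luciferase: firefly (GAL4-driven) normalized to DMSO-only and saturating-reference controls, then to CMV-Renilla. Full-length human RORγt fused to GAL4-DBD was transiently expressed in HEK293T; compound exposure ran overnight (16-20 h) starting 4-6 h after transfection, final FBS 1.3%, DMSO 0.1%.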

Sequence of human RORγt ligand binding domain (RORγt LBD) (P51449 other isoform, or with tags, fused parts or gaps): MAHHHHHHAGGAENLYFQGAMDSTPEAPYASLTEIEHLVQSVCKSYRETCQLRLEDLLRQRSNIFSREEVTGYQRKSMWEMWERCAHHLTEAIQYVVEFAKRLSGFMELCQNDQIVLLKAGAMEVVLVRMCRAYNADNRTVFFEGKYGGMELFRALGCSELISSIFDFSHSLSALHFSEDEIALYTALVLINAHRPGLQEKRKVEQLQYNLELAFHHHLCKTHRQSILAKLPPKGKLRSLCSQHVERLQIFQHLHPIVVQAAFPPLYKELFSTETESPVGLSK
Sequence of full-length human RORγt (P51449 other isoform, or with tags, fused parts or gaps): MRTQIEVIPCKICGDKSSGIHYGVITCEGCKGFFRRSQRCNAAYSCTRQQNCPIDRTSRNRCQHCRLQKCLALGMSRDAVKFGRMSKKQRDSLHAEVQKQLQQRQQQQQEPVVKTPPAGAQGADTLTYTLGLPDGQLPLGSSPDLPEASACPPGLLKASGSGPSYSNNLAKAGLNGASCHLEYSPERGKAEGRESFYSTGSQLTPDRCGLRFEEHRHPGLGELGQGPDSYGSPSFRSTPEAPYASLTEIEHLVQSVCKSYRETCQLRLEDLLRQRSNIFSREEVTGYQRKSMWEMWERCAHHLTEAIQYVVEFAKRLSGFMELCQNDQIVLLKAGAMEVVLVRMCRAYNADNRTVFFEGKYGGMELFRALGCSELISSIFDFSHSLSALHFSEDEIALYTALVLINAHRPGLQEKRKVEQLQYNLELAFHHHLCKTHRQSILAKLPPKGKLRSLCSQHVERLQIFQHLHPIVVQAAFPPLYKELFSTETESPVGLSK

SMILES | Kd [1] | RORγt (FL) Reporter Assay B or C, % inhibition (value marked *) (full-length human RORγt) | IC50 (full-length human RORγt) | RORγt (FL) Reporter Assay B or C, % inhibition (value marked ***) (full-length human RORγt)
C[C@H](NC(=O)c1nc(C(=O)N2C3CCC2CC3)c(-c2cnc(NC3(C)CCC3)cc2C(F)F)s1)C(C)(C)O [Example 189] | 3.6 nM | 101* % | 98 nM | 
C[C@H](Nc1cc(C(F)F)c(-c2sc(C(=O)N[C@H]3COC[C@@H]3O)nc2C(=O)N2CC(F)(F)C[C@@H]2C)cn1)C(F)(F)F [Example 190] | 3.8 nM | 104* % | 34 nM | 
C[C@H](Nc1cc(C(F)F)c(-c2sc(C(=O)N[C@H]3C[C@H](O)C3)nc2C(=O)N2CC(F)(F)C[C@@H]2C)cn1)C(F)(F)F [Example 191, 4-((S)-4,4-Difluoro-2-methylpyrrolidine-1-carbonyl)-5-(4-(difluoromethyl)-6-(((S)-1,1,1-trifluoropropan-2-yl)amino)pyridine-3-yl)-N-((1r,3S)-3-hydroxycyclobutyl)thiazole-2-carboxamide] | 18 nM | 98* % | 32 nM | 
C[C@H](Nc1cc(C(F)F)c(-c2sc(C(=O)NC3CS(=O)(=O)C3)nc2C(=O)N2CC(F)(F)C[C@@H]2C)cn1)C(F)(F)F [Example 192, 4-((S)-4,4-Difluoro-2-methylpyrrolidine-1-carbonyl)-5-(4-(difluoromethyl)-6-(((S)-1,1,1-trifluoropropan-2-yl)amino)pyridine-3-yl)-N-(1,1-dioxidothietan-3-yl)thiazole-2-carboxamide] | 2.8 nM | 101* % | 37 nM | 
C[C@H](Nc1cc(C(F)F)c(-c2sc(C(=O)N[C@@H](C)C(C)(C)O)nc2C(=O)N2CC(F)(F)C[C@@H]2C)cn1)C1CC1 [Example 193, 5-(6-(((S)-1-Cyclopropylethyl)amino)-4-(difluoromethyl)pyridine-3-yl)-4-((S)-4,4-difluoro-2-methylpyrrolidine-1-carbonyl)-N—((S)-3-hydroxy-3-methylbutan-2-yl)thiazole-2-carboxamide] | 2.6 nM | 82* % | 32 nM | 
C[C@H](Nc1cc(C(F)F)c(-c2sc(C(=O)N[C@H](C)C(C)(C)O)nc2C(=O)N2CC(F)(F)C[C@@H]2C)cn1)C1CC1 [Example 194, 5-(6-(((S)-1-Cyclopropylethyl)amino)-4-(difluoromethyl)pyridine-3-yl)-4-((S)-4,4-difluoro-2-methylpyrrolidine-1-carbonyl)-N—((R)-3-hydroxy-3-methylbutan-2-yl)thiazole-2-carboxamide] | 4.7 nM | 85* % | 88 nM | 
C[C@H](NC(=O)c1nc(C(=O)N2CC(F)(F)C[C@@H]2C)c(-c2cnc(NC3(C)CCC3)cc2C(F)(F)F)s1)C(C)(C)O [Example 195, 4-((S)-4,4-Difluoro-2-methylpyrrolidine-1-carbonyl)-N—((S)-3-hydroxy-3-methylbutan-2-yl)-5-(6-((1-methylcyclobutyl)amino)-4-(trifluoromethyl)pyridine-3-yl)thiazole-2-carboxamide] | 0.43 nM | 85* % | 33 nM | 
C[C@H]1CC(F)(F)CN1C(=O)c1nc(C(=O)N[C@H](C)C(C)(C)O)sc1-c1cnc(NC2(C)CCC2)cc1C(F)(F)F [Example 196, 4-((S)-4,4-Difluoro-2-methylpyrrolidine-1-carbonyl)-N—((R)-3-hydroxy-3-methylbutan-2-yl)-5-(6-((1-methhylcyclobutyl)amino)-4-(trifluoromethyl)pyridine-3-yl)thiazole-2-carboxamide] | 0.64 nM | 109* % | 27 nM | 
C[C@H](Nc1cc(C(F)F)c(-c2sc(C(=O)N[C@H](C)C(C)(C)O)nc2C(=O)N2CC(F)(F)C[C@@H]2C)cn1)C(F)(F)F [Example 198] | 2.5 nM | 102* % | 53 nM | 
C[C@H](Nc1cc(C(F)F)c(-c2sc(C(=O)N[C@H](C)C(C)(C)O)nc2C(=O)N2CCC[C@@H]2C)cn1)C(F)(F)F [Example 200, 5-(4-(Difluoromethyl)-6-(((S)-1,1,1-trifluoropropan-2-yl)amino)pyridine-3-yl)-N—((R)-3-hydroxy-3-methylburan-2-yl)-4-((S)-2-methylpyrrolidine-1-carbonyl)thiazole-2-carboxamide] | 12 nM | 104* % | 200 nM | 
CC[C@H](Nc1cc(C(F)F)c(-c2sc(C(=O)N[C@@H]3COC[C@H]3O)nc2C(=O)N2C3CCC2CC3)cn1)C(F)(F)F [Example 208, 4-((1s,4s)-7-Azabicyclo[2.2.1]heptane-7-carbonyl)-5-(4-(difluoromethyl)-6-(((1S)-1-(trifluoromethyl)propyl)amino)-3-pyridyl)-N-((3R,4S)-4-hydroxytetrahydrofuran-3-yl)thiazole-2-carboxamide] | 4.4 nM | 101* % | 54 nM | 
CC[C@H](Nc1cc(C(F)F)c(-c2sc(C(=O)N[C@H]3COC[C@@H]3O)nc2C(=O)N2C3CCC2CC3)cn1)C(F)(F)F [Example 209, 4-((1s,4s)-7-Azabicyclo[2.2.1]heptane-7-carbonyl)-5-(4-(difluoromethyl)-6-(((1S)-1-(trifluoromethyl)propyl)amino)-3-pyridyl)-N-((3S,4R)-4-hydroxytetrahydrofuran-3-yl]thiazole-2-carboxamide] | 3.4 nM | 99* % | 46 nM | 

More lines, now with the values ahead:

Kd [1] | RORγt (FL) Reporter Assay B or C, % inhibition (value marked *) (full-length human RORγt) | IC50 (full-length human RORγt) | RORγt (FL) Reporter Assay B or C, % inhibition (value marked ***) (full-length human RORγt) | SMILES
0.61 nM | 102* % | 16 nM |  | C[C@H](Nc1cc(C(F)(F)F)c(-c2sc(C(=O)N[C@@H]3CCC[C@@H]3O)nc2C(=O)N2CC(F)(F)C[C@@H]2C)cn1)C1CC1 [Example 201, 5-(6-(((S)-1-Cyclopropylethyl)amino)-4-(trifluoromethyl)pyridine-3-yl)-4-((S)-4,4-difluoro-2-methylpyrrolidine-1-carbonyl)-N-((1R,2S)-2-hydroxycyclopentyl)thiazole-2-carboxamide]
1.3 nM | 98* % | 17 nM |  | C[C@H](Nc1cc(C(F)(F)F)c(-c2sc(C(=O)N[C@@H](C)C(C)(C)O)nc2C(=O)N2CC(F)(F)C[C@@H]2C)cn1)C1CC1 [Example 202, 5-(6-(((S)-1-Cyclopropylethyl)amino)-4-(trifluoromethyl)pyridine-3-yl)-4-((S)-4,4-difluoro-2-methylpyrrolidine-1-carbonyl)-N—((S)-3-hydroxy-3-methylbutan-2-yl)thiazole-2-carboxamide]
1.5 nM | 97* % | 42 nM |  | C[C@H](Nc1cc(C(F)(F)F)c(-c2sc(C(=O)N[C@H](C)C(C)(C)O)nc2C(=O)N2CC(F)(F)C[C@@H]2C)cn1)C1CC1 [Example 203, 5-(6-(((S)-1-Cyclopropylethyl)amino)-4-(trifluoromethyl)pyridine-3-yl)-4-((S)-4,4-difluoro-2-methylpyrrolidine-1-carbonyl)-N—((R)-3-hydroxy-3-methylbutan-2-yl)thiazole-2-carboxamide]
3.6 nM | 105* % | 24 nM |  | CC[C@@H](Nc1cc(C(F)F)c(-c2sc(C(=O)N[C@@H]3COC[C@H]3O)nc2C(=O)N2CCC[C@@H]2C)cn1)C(F)(F)F [Example 204, 5-(4-(Difluoromethyl)-6-(((1R)-1-(trifluoromethyl)propyl)amino)-3-pyridyl)-N-((3R,4S)-4-hydroxytetrahydrofuran-3-yl)-4-((2S)-2-methylpyrrolidine-1-carbonyl)thiazole-2-carboxamide]
6.8 nM | 103* % | 33 nM |  | CC[C@@H](Nc1cc(C(F)F)c(-c2sc(C(=O)N[C@H]3C[C@H](O)C3)nc2C(=O)N2CCC[C@@H]2C)cn1)C(F)(F)F [Example 205, 5-(4-(Difluoromethyl)-6-(((1R)-1-(trifluoromethyl)propyl)amino)-3-pyridyl)-N-((1r,3S)-3-hydroxycyclobutyl)-4-((2S)-2-methylpyrrolidine-1-carbonyl)thiazole-2-carboxamide]
3.2 nM |  | 35 nM | 106*** % | CC[C@@H](Nc1cc(C(F)F)c(-c2sc(C(=O)N[C@H](C)CO)nc2C(=O)N2CCC[C@@H]2C)cn1)C(F)(F)F [Example 206, 5-(4-(Difluoromethyl)-6-(((1R)-1-(trifluoromethyl)propyl)amino)-3-pyridyl)-N-((1R)-2-hydroxy-1-methyl-ethyl)-4-((2S)-2-methylpyrrolidine-1-carbonyl)thiazole-2-carboxamide]
2.6 nM |  | 19 nM | 103*** % | CC[C@@H](Nc1cc(C(F)F)c(-c2sc(C(=O)N[C@H]3COC[C@@H]3O)nc2C(=O)N2CCC[C@@H]2C)cn1)C(F)(F)F [Example 207, 5-(4-(Difluoromethyl)-6-(((1R)-1-(trifluoromethyl)propyl)amino)-3-pyridyl)-N-((3S,4R)-4-hydroxytetrahydrofuran-3-yl)-4-((2S)-2-methylpyrrolidine-1-carbonyl)thiazole-2-carboxamide]
